Marks after values point to notes of the source that are not given here.
System: acetic acid-induced pain in mice
Test: Analgesia: acetic acid-induced writhing
Format: in vivo
Details: 0.15 g/kg intragastric once per day 7 days
Experimental: 40 mice, 20-22 g in weight, were randomly divided into 4 groups each having 10 mice, a baicalin (0.067 g/kg) group, a baicalin magnesium (equivalent to 0.067 g/kg of baicalin) group, a blank control group (administrated with normal saline), and an aspirin positive control group (0.15 g/kg). The mice were intragastrically administrated once per day for successive 7 days. After 30 minutes of final administration, the mice were intraperitoneally injected with 0.6% acetic acid saline solution at a dose of 0.2 mL/10 g; the number of writhing responses in the mice within 15 minutes was counted. Analgesia % was calculated as follows: Analgesia %=[(average number of writhing responses of the blank control group−average number of writhing responses of the drug administration group)/average number of writhing responses of the blank control group]×100%. Single-factor variance analysis was performed on data by the SPSS19.0 statistical software, and P<0.05 was of statistical significance.

For `CC(=O)Oc1ccccc1C(=O)O` [Positive Control, aspirin], the Analgesia % (vs blank control) was 83.3* % and the Number of writhing (writhing within 15 minutes after 0.6% acetic acid i.p.) was 4.43 ± 3.21.

Source: patent US10196417B2, “Baicalin magnesium compound and its preparation method and application” (CHENGDE MEDICAL UNIVERSITY, priority 2016, dated 2019)
